Data set [1] can be described thus: Half-life period was determined, by hydrolyzing under mild conditions (pH = 8.0, 25 degrees Celsius). The format is ADME.
Another data set has as its target T1, Neutrophil elastase (Homo sapiens, UniProt P08246).
T1 sequence (P08246 whole entry): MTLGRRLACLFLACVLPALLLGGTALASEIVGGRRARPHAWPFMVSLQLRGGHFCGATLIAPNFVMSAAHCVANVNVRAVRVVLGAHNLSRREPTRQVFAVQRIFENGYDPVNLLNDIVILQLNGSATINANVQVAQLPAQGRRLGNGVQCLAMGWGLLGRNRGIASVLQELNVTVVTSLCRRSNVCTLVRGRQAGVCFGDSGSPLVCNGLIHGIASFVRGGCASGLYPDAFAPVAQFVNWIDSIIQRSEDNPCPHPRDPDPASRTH
Description: Concentration required for inhibition of human leukocyte elastase (HLE).

In data set [2] the target is T2, Neutrophil elastase (Homo sapiens) (UniProt P08246).
T2 sequence (whole entry): T1 sequence (P08246 whole entry)
The data set can be described thus: Human leukocyte elastase (HLE) inhibitory activity is reported as kinetic constant (kobs/[I] - time dependent inhibition).

pKi: −log10 of the molar value.

In the case of `CC[C@@H]1C(=O)N[C@H]1Oc1ccc(C(=O)O)cc1`, in data set [1], the half-life is around 32 h. The pKi at Neutrophil elastase was 3.54.
Turning to `CC[C@@H]1C(=O)N(C(C)=O)[C@H]1Oc1ccc(C(=O)O)cc1`, in data set [1], the half-life was around 9 h. In data set [2], this molecule had a k obs / 1 of 6680 M⁻¹ s⁻¹.
For the molecule `CCOC(=O)N1C(=O)[C@@H](CC)[C@@H]1Oc1ccc(C(=O)O)cc1`, the k obs / 1 in data set [2] amounted to 6350 M⁻¹ s⁻¹.
In data set [1], `CC[C@@H]1C(=O)N(C(C)=O)[C@H]1OC(C)=O` (racemic) showed a half-life of around 2 h.
In turn, `CC[C@@H]1C(=O)N(C(=O)NC)[C@H]1Oc1ccc(C(=O)O)cc1` showed a pKi on Neutrophil elastase of 4.78.
In data set [2], `CC[C@@H]1C(=O)N(C(=O)NCc2ccccc2)[C@H]1Oc1ccc(C(=O)O)cc1` returned a k obs / 1 of 2480 M⁻¹ s⁻¹.

Source of the values: ChEMBL document CHEMBL1126431, “The effect of N-acyl substituents on the stability of monocyclic -lactam inhibitors of human leukocyte elastase” (Bioorg Med Chem Lett, 1992).
